{"source": "paper PMC6896172", "about": "“Successful Targeting of the Warburg Effect in Prostate Cancer by Glucose-Conjugated 1,4-Naphthoquinones” (Cancers, 2019)", "key": {"PC-3 cells": {"tested_on": "PC-3 cells", "experiment": "MTT cytotoxicity assay in PC-3 cells", "assay_type": "cell-based, human", "details": "for pIC50: 48 h of treatment; for SI [IC50(PNT2) / IC50(PC-3)]: ratio of IC50 in PNT2 cells to IC50 in PC-3 cells, 48 h", "source_text": "(§1) For general experiments human prostate cancer cell lines PC-3 and DU145 (docetaxel-resistant, androgen-independent, AR-FL(−), AR-V7(−)), 22Rv1 and VCaP (docetaxel-sensitive, androgen-independent, AR-FL(+), AR-V7(+), and LNCaP (docetaxel sensitive, androgen-dependent, AR-FL(+), AR-V7(−) were used. PC-3, 22Rv1, LNCaP cells as well as the human prostate non-cancer cells PNT2 and RWPE-1 were purchased from ATCC (Manassas, VA, USA). VCaP were purchased from ECACC (Salisbury, UK). The human fibroblast cell line MRC-9, the human embryonic kidney cell line HEK 293T, as well as the human umbilical vascular endothelial cell line HUVEC were kindly donated by Prof. Dr. Dr. med. Sonja Loges (University Medical Center Hamburg-Eppendorf, Hamburg, Germany). Cells were cultured according to the manufacturers’ instructions and were recently authenticated by a commercial service (Multiplexion, Heidelberg, Germany). Culture conditions are described in the Supplementary Information.\n(§2) MTT (3-(4,5-dimethylthiazol-2-yl)-2,5-diphenyltetrazolium bromide) cytotoxicity assay was used for the evaluation of cytotoxicity of the compounds or their combinations. Experiments were performed as previously described. In brief, 6000 cells/well were seeded in 96-well plate, incubated overnight, and treated with the drugs in 100 µL/well of 10% FBS/RPMI media containing 2 g/L of D-(+)-glucose for 48 h, unless otherwise stated. For 2 h treatment the cells were treated with the drugs for 2 h in the culture media, then the media was exchanged to fresh drug-free media (100 µL/well) containing MTT reagent and the further steps were performed as previously described.\n(§3) Table S4. Cytotoxic activity of the synthesized compounds. Cytotoxicity was determined in human prostate cancer PC-3 cells versus human prostate non-cancer\n(§4) PNT2 cells after 48 h of treatment, as well as its ratio. IC50 was evaluated using MTT assay. SI–selectivity index. #–the IC50s in both cell lines were >100 µM.\n(§5) Anisomycin was used as a reference substance.\n(§6) No Formula IC50(PC-3) IC50(PNT2) SI […]"}, "PNT2 cells": {"tested_on": "PNT2 cells", "experiment": "MTT cytotoxicity assay in PNT2 cells", "assay_type": "cell-based, human", "details": "48 h of treatment", "source_text": "as §1, §2, §3, §4, §5, §6"}, "[1]": {"tested_on": "human prostate cancer cell lines and human non-cancer cell lines", "experiment": "MTT cytotoxicity profile in five prostate cancer versus five non-cancer cell lines", "assay_type": "cell-based", "details": "48 h", "source_text": "as §1\nMTT (3-(4,5-dimethylthiazol-2-yl)-2,5-diphenyltetrazolium bromide) cytotoxicity assay was used for the evaluation of cytotoxicity of the compounds or their combinations. Experiments were performed as previously described. […]"}, "MRC-9 cells": {"tested_on": "MRC-9 cells", "experiment": "MTT cytotoxicity assay in MRC-9 cells", "assay_type": "cell-based", "details": "Homo sapiens, MRC9, 48 h of treatment, non-cancer", "description": "(§7) Dr. Dr. med. Sonja Loges (University Medical Center Hamburg-Eppendorf, Hamburg, Germany). Cells were cultured according to the manufacturers’ instructions and were recently authenticated by a commercial service (Multiplexion, Heidelberg, Germany). Culture conditions are described in the Supplementary Information.\nas §2"}, "RWPE-1 cells": {"tested_on": "RWPE-1 cells", "experiment": "MTT cytotoxicity assay in RWPE-1 cells", "assay_type": "cell-based", "details": "Homo sapiens, 48 h of treatment, non-cancer", "description": "as §7, §2"}, "HEK293 cells": {"tested_on": "HEK293 cells", "experiment": "MTT cytotoxicity assay in HEK293 cells", "assay_type": "cell-based", "details": "Homo sapiens, 48 h of treatment, non-cancer", "description": "as §7, §2"}, "HUVEC cells": {"tested_on": "HUVEC cells", "experiment": "MTT cytotoxicity assay in HUVEC cells", "assay_type": "cell-based", "details": "Homo sapiens, 48 h of treatment, non-cancer", "description": "as §7, §2"}, "VCaP cells": {"tested_on": "VCaP cells", "experiment": "MTT cytotoxicity assay in VCaP cells", "assay_type": "cell-based", "details": "Homo sapiens, 48 h of treatment, cancer", "description": "as §7, §2"}, "DU145 cells": {"tested_on": "DU145 cells", "experiment": "MTT cytotoxicity assay in DU145 cells", "assay_type": "cell-based", "details": "Homo sapiens, DU-145, 48 h of treatment, cancer", "description": "as §7, §2"}, "22Rv1 cells [2]": {"tested_on": "22Rv1 cells", "experiment": "MTT cytotoxicity assay in 22Rv1 cells", "assay_type": "cell-based, human", "details": "for pIC50: Homo sapiens", "description": "as §7, §2"}, "LNCaP cells": {"tested_on": "LNCaP cells", "experiment": "MTT cytotoxicity assay in LNCaP cells", "assay_type": "cell-based", "details": "Homo sapiens, 48 h of treatment, cancer", "description": "as §7, §2"}, "22Rv1 cells [3]": {"tested_on": "22Rv1 cells", "experiment": "Trypan blue exclusion viability assay", "assay_type": "cell-based", "details": "Homo sapiens, 48 h of treatment", "description": "The in vitro effect of the drugs on cell viability and proliferation was evaluated using trypan blue exclusion assay as described before with minor modifications. In brief, cells (0.2 × 10^6 cells/well) were seeded in 12-well plates, incubated overnight, the media was replaced with fresh media (1 mL/well) and treated with the drugs for 48 h. Cells were harvested by trypsination and the viability was measured using trypan blue staining and Beckman Coulter Vi-CELL (Beckman Coulter, Krefeld, Germany)."}, "22Rv1 cells [4]": {"tested_on": "22Rv1 cells", "experiment": "Intracellular ROS (CM-H2DCFDA, flow cytometry)", "assay_type": "cell-based, human", "details": "2 h of treatment", "description": "Intracellular ROS levels were estimated using the ROS-sensitive CM-H2DCFDA reagent (Cat. No. C6827, Molecular probes, Invitrogen, Eugene, OR, USA) as described before. In brief, 22Rv1 cells were seeded in 12-well plates (0.2 × 10^6 cells/well in 1 mL/well of media) and incubated overnight. The media was changed into freshly made pre-warmed 4 µM CM-H2DCFDA/PBS (0.5 mL/well) and incubated for 30 min (37 °C, 5% CO2, in the dark). Then, the CM-H2DCFDA solution was exchanged with 1 mL/well of pre-warmed PBS containing the drugs or H2O2 (positive control) at the indicated concentrations. After 2 h of incubation the cells were trypsinized and immediately analyzed by flow cytometry technique according to the manufacture’s protocols."}, "22Rv1 cells [5]": {"tested_on": "22Rv1 cells", "experiment": "Mitochondrial membrane potential assay (JC-1, flow cytometry)", "assay_type": "cell-based, human", "details": "2 h of treatment", "description": "The loss of mitochondrial membrane potential (Δψ) was measured by flow cytometry technique using staining with Δψ-sensitive dye JC-1 (5,5′,6,6′-tetrachloro-1,1′,3,3′-tetraethylimidacarbocyanine iodide). Cells were seeded in 12-well plates (100 × 10^3 cells/well in 1 mL/well) and incubated overnight. Then, the media was changed to PBS (1 mL/well) containing the investigational drugs. After 2 h of incubation (37 °C, 5% CO2, in the dark) the cells were trypsinized, pelleted, resuspended in 100 µL of 2 µM JC-1/PBS, incubated for 1 h (37 °C, 5% CO2, in the dark) and Δψ loss was measured by flow cytometry technique."}, "22Rv1 cells [6]": {"tested_on": "22Rv1 cells", "experiment": "Colony formation assay", "assay_type": "cell-based, human", "details": "22Rv1 cells treated with non-cytotoxic concentrations for 48 h", "description": "Colony formation assays were performed as described before. In brief, cells were treated with the drugs for 48 h and then 100 alive cells were plated into each well of 6-well plates and incubated for 10 days. Surviving colonies were fixed, stained with Giemsa solution and counted."}, "22Rv1 cells [7]": {"tested_on": "22Rv1 cells", "experiment": "Western blotting of treated cells", "assay_type": "cell-based, human", "description": "(§8) Preparation of protein extracts for western blotting was performed as described previously. In brief, for western blotting, 1 × 10^6 cells/well were seeded in Petri dishes (ø 6 cm TC Dish (Sarstedt, Numbrecht, Germany) in 5 mL/dish), incubated overnight and treated with drugs in 5 mL/dish for an indicated time. Cells were harvested using a cell scraper, pelleted, and resuspended in the lysis buffer containing protease and phosphatase inhibitors. Further sample preparation and western blotting were performed as previously described with slight modifications. Relative optical density of the detected bands was quantified with Quantity One 4.6 software (Bio-Rad, Hercules, CA, USA). The primary and secondary antibodies used are listed in the Supplementary Information."}, "22Rv1 cells [8]": {"tested_on": "22Rv1 cells", "experiment": "Cell fractionation followed by Western blotting", "assay_type": "cell-based, human", "details": "48 h", "description": "as §8\n22Rv1 cells were seeded in T75 culture bottles (4 × 10^6 cells/bottle in 20 mL/bottle), treated for 48 h and harvested by scratching. The further separation of cytosolic, mitochondrial and nuclear fractions was performed using the Cell Fractionation Kit ab109719 (abcam, Cambridge, MA) as previously described. Mitochondrial and cytosolic fractions were concentrated using Amicon® Ultra-2 Centrifugal Filter device (Cat. No. UFC203024, Merck, Darmstadt, Germany). Nuclear fractions were additionally homogenized using QIAshedder kit (QIAGEN, Hilden, Germany)."}}, "note": "pIC50: −log10 of the molar value.", "data": [{"smiles": "COc1ccc(C[C@H]2NC[C@H](O)[C@H]2OC(C)=O)cc1", "note": "[Anisomycin, anisomycin, reference compound]", "values": [{"measurement": "pIC50", "setting": "PC-3 cells", "value": 5.83}, {"measurement": "SI [IC50(PNT2) / IC50(PC-3)]", "setting": "PC-3 cells", "value": 0.47}, {"measurement": "pIC50", "setting": "PNT2 cells", "value": 6.15}, {"measurement": "selectivity to prostate cancer cell lines versus non-cancer cell lines", "setting": "[1]", "value": "no selectivity was found"}]}, {"smiles": "CC1(C)OC2OC(C(O)COC3=CC(=O)c4c(O)cccc4C3=O)C(O)C2O1", "note": "(centres unmarked) [Compound 7]", "values": [{"measurement": "pIC50", "setting": "PC-3 cells; Homo sapiens, PC-3, 48 h", "value": 5.21}, {"measurement": "SI [IC50(PNT2) / IC50(PC-3)]", "setting": "PC-3 cells", "value": 1.20}, {"measurement": "pIC50", "setting": "PNT2 cells; Homo sapiens, PNT2, 48 h", "value": 5.14}, {"measurement": "pIC50", "setting": "MRC-9 cells", "value": 5.24}, {"measurement": "pIC50", "setting": "RWPE-1 cells", "value": 5.47}, {"measurement": "pIC50", "setting": "HEK293 cells", "value": 5.45}, {"measurement": "pIC50", "setting": "HUVEC cells", "value": 5.04}, {"measurement": "pIC50", "setting": "VCaP cells", "value": 5.09}, {"measurement": "pIC50", "setting": "DU145 cells", "value": 6.08}, {"measurement": "effect of N-acetyl-L-cysteine pre-treatment on cytotoxic activity", "setting": "22Rv1 cells [2]; 22Rv1 cells, 1 mM NaC 1 h then co-treatment 48 h, FBS- and glucose-free RPMI", "value": "significantly suppressed the cytotoxic activity"}, {"measurement": "pIC50", "setting": "22Rv1 cells [2]; 22Rv1, 48 h of treatment, cancer, read-out: IC50 (22Rv1)", "value": 5.79}, {"measurement": "pIC50", "setting": "22Rv1 cells [2]; 22Rv1 cells, 2 h treatment, read-out: IC50 after 2 h of treatment", "value": 4.62}, {"measurement": "pIC50", "setting": "LNCaP cells", "value": 5.66}, {"measurement": "pIC50", "setting": "22Rv1 cells [3]", "value": 5.46}, {"measurement": "effect on ROS level", "setting": "22Rv1 cells [4]", "value": "remarkable and significant increase of the ROS level"}, {"measurement": "effect on ΔΨm", "setting": "22Rv1 cells [5]", "value": "quick ΔΨm loss"}, {"measurement": "cancer cell colony formation", "setting": "22Rv1 cells [6]", "value": "suppress cancer cell colony formation"}, {"measurement": "cleavage of caspase-9", "setting": "22Rv1 cells [7]; 2 h and 48 h treatment", "value": "observed already after 2 h"}, {"measurement": "AR-FL and AR-V7 expression", "setting": "22Rv1 cells [7]; 48 h treatment", "value": "downregulated both, AR full length (AR-FL) and AR-V7"}, {"measurement": "Bax and Bcl-2 expression", "setting": "22Rv1 cells [7]; 48 h treatment", "value": "up-regulation of Bax and down-regulation of Bcl-2"}, {"measurement": "LC3B-II and SQSTM1 levels (autophagy markers)", "setting": "22Rv1 cells [7]; pre-cytotoxic and cytotoxic concentrations, 48 h", "value": "accumulation of both, LC3B-II and SQSTM1"}, {"measurement": "release of mitochondrial proteins AIF and cytochrome C", "setting": "22Rv1 cells [8]", "value": "release of mitochondrial proteins"}]}]}
